Structures are written as SMILES. Read-outs that look alike come from different tables or passages of the source.

The target in experiment [1] is T1, human β3 adrenergic receptor (Homo sapiens, UniProt P13945).
T1 construct: expressed in transfected cells; host or cells: Chinese hamster ovary (CHO) cells, stably transfected
Briefly: Beta-3 agonist in vitro functional assay: cAMP production (LANCE TR-FRET) in CHO cells stably transfected with the cloned β3 receptor. The class given is cell-based. Particulars: read-out: Human β3 agonist functional activity. The essentials: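 CHO cells stably expressing the cloned receptor, in HEPES-buffered HBSS with BSA and 0.6 mM IBMX, 6,000 cells/well, exposed to compound for 30 min at RT. cAMP read by LANCE TR-FRET against a cAMP standard curve. Isoproterenol defines maximal stimulation.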

In a further experiment the target is T2, β3AR (Rattus norvegicus, UniProt P26255).
T2 construct: host or cells: live rats (bladder, in vivo)
Particulars: rats, intravenous administration, cited from earlier work.

[2] abbreviates: Table 8, Beta-3 agonist in vitro functional assay.
The mark [3] stands for this setting: Table 10, Beta-3 agonist in vitro functional assay.

T1 sequence (P13945 whole entry): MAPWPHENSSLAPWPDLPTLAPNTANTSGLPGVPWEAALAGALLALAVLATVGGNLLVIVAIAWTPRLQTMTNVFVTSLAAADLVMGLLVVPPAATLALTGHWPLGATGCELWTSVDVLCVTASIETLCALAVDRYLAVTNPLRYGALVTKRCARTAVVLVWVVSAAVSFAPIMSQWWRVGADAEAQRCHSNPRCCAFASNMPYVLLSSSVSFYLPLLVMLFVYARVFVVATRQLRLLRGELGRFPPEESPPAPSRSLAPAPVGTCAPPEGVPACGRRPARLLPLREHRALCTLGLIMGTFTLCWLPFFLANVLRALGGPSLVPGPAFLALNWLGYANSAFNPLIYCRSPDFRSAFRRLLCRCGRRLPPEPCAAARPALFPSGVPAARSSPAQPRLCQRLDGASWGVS
T2 sequence (P26255 whole entry): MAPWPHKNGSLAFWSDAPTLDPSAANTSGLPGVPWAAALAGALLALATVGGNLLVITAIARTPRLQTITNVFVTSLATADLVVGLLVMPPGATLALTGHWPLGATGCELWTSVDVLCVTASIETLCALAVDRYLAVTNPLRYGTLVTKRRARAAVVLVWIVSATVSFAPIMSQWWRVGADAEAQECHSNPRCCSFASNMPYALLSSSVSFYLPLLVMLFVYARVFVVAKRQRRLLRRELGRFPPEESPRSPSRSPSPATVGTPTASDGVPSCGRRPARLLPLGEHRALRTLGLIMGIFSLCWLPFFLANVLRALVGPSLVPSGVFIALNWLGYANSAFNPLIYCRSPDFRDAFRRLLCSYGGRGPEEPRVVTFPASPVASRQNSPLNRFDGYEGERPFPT

As to `CC(C)(C)C1CC2(CCN(C(=O)c3ccc(CC4CCC(C(O)c5ccccc5)N4)cc3)CC2)C(=O)O1` (single isomer, unassigned) [Example 569], in experiment [1] (Table 12, human β3 functional activity given as ranges), the EC50 lay within 1 to 9.9 nM. In the case of `C[C@H](Cc1ccc2c(c1)OC(C(=O)[O-])(C(=O)[O-])O2)NC[C@H](O)c1cccc(Cl)c1.[Na+].[Na+]` [CL316243], at β3AR (cystometric studies), the bladder capacity entry is “increases bladder capacity”, the micturition interval result was “prolongation of micturition interval” and the residual urine volume result is “without increasing residual urine volume”. Moreover, the bladder pressure result at β3AR is on record as “reduces bladder pressure”. Consider `CC1(C)OCC2(CCN(C(=O)c3ccc(C[C@@H]4CC[C@H]([C@H](O)c5ccccc5)N4)cc3)CC2)C1O` (stereo partly shown) [Example 313], for which, in experiment [1] (setting [2]), the EC50 lay within 100 to 999 nM. In the case of `O=C(c1ccc(C[C@@H]2CC[C@H]([C@H](O)c3ccccc3)N2)cc1)N1CCC2(CC1)NCNC2=O` [Example 258], the EC50 in experiment [1] (setting [2]) is 10 to 99.9 nM. On the same count and under the same terms, then `O=C(c1ccc(C[C@@H]2CC[C@H]([C@H](O)c3ccccc3)N2)cc1)N1CCC(F)(S(=O)(=O)c2ccc(F)cc2)CC1` [Example 240], with 10 to 99.9 nM. For the compound `NC(=O)CN1CCN(C(=O)c2ccc(C[C@@H]3CC[C@H]([C@H](O)c4ccccc4)N3)cc2)CC1` [Example 388], in experiment [1] (Table 9, Beta-3 agonist in vitro functional assay), the EC50 was 100 to 999 nM. `O=C(c1ccc(C[C@@H]2CC[C@H]([C@H](O)c3ccccc3)N2)cc1)N1CCC(c2nnnn2C2CC2)CC1` [Example 110]: in experiment [1] (Table 5, cAMP, CHO cells), the EC50 is less than 1 nM. Take `CN1CC(c2ccc(F)cc2)C2(CCN(C(=O)c3ccc(C[C@@H]4CC[C@H]([C@H](O)c5ccccc5)N4)cc3)CC2)C1=O` (stereo partly shown) [Example 262]: the EC50 in experiment [1] (setting [2]) was less than 1 nM. With `CC(C(=O)NCC1(C)CCC1)N1CCN(C(=O)c2ccc(C[C@@H]3CC[C@H]([C@H](O)c4ccccc4)N3)cc2)CC1` (stereo partly shown) [Example 453], the EC50 in experiment [1] (setting [3]) was in the range of 1 to 9.9 nM. Turning to `COCCNC(=O)C(C)N1CCN(C(=O)c2ccc(C[C@@H]3CC[C@H]([C@H](O)c4ccccc4)N3)cc2)CC1` (stereo partly shown) [Example 442], the EC50 in experiment [1] (setting [3]) was 100 to 999 nM.

The values are drawn from patent US8354403B2, “Pyrrolidine derived beta 3 adrenergic receptor agonists” (Merck Sharp & Dohme Corp., priority 2009, dated 2013).
